Measured values reported in patent publication EP0494754A1, “3-hydroxypyridin-4-one derivatives as pharmaceutical compositions” (BRITISH TECHNOLOGY GROUP LTD, priority 1991, dated 1992).
Where two headings read alike, the source gives them in different places.

Assays:
Assay type in all cases: cell-based
MEL cells, clone 585 = assay: Inhibition of growth of murine erythroleukaemia (MEL) cells, cell counting; conditions: 50 µmol/l iron binding concentration; after 30 hours; Figure 2
Procedure: MEL cells, clone 585, were grown in suspension culture at 37°C in RPMI 1640 that had been supplemented with 13% v/v foetal calf serum, 25 µl/ml gentamicin, 1.9 mM glutamine and 2% diaminopurine as described by Peto et al in Br. J. Haematol., 1983, 54, 623. The cultures were maintained in an atmosphere containing 5% carbon dioxide and passaged every 3-4 days at a seeding concentration of 1-2 x 10⁴/ml to ensure that the cells were continually in logarithmic growth phase. Under these conditions, the doubling time for cell growth was 30-36 hours.
10 ml volumes of cell suspension were incubated in 50 ml flasks with each of the ten chelators identified in the Table at a 50 µmol/l iron binding concentration, controls being employed which contained no chelator. 400 µl aliquots were removed in duplicate for growth assessment at 24 hour intervals over the next four days. The experiment was repeated on three separate occasions, the initial cell concentration in each case being 2-3 x 10⁴ cells/ml. Cell growth was assessed both by examination of cultures using light microscopy and by cell counting. At various times throughout each experiment, 400 µl culture was added to 19.6 ml Isoton and the number of particles counted using a Coulter Counter ZN set at threshold 20 and attenuation 0.4
The effect of the different chelators on growth of the MEL cells after 30 hours was compared with the effect produced after a similar time by the same chelators at a 50 µmol/l iron binding concentration using the procedure described in Example 2(A). The results are illustrated in Figure 2. It will be seen that the compounds 2, 3, 4, 5, 6, 9 and 10 inhibited growth of MEL cells and of P. falciparum, the minimum growth inhibition being 80% and 70% respectively. […] When these two groups of chelators were examined together a close linear correlation (r = 0.978) was found between the degree of growth inhibition produced in both types of cell for each chelator studied. The compound 1 was distinguished from all of the other chelators in being the only one to have no significant inhibitory effect on the growth of MEL cells (<10%) whilst at the same time producing a substantial inhibitory effect on the growth of P. falciparum (>75%).

P. falciparum [1] = assay: 6 hour pulse exposure at different stages of the first parasite cycle, growth by tritiated hypoxanthine uptake; design: dose or concentration left out as unconfirmed; conditions: Plasmodium falciparum
Procedure: In the case of 2-carboxymethyl-3-hydroxy-1-methylpyridin-4-one, 1-(2-carboxyethyl)-2-ethyl-3-hydroxypyridin-4-one and 1-(3-carboxypropyl)-2-methyl-3-hydroxypyridin-4-one a dosage level of 0.5 µmol/l was required to produce a similar level of growth inhibition and in the case of 3-hydroxy-2-methyl-1-(2-sulphoethyl)pyridin-4-one a dosage level of 1 µmol/l was required. (C) A culture of ring parasites obtained as in (A) was dispensed in 3 ml volumes into separate flasks. Different cultures were exposed during a 6 hour period to the compound 1 in a 100 µmol/l iron binding concentration at different stages during the first parasite cycle and controls containing no chelator were again employed. At the end of each 6 hour pulse, all cultures were washed twice in RPMI 1640 and the pellet was resuspended in complete medium. At 40 hours, when cells from cultures that had not been exposed at any time to a chelator contained segmenting schizonts, tritiated hypoxanthine was added to the incubation medium of all the cultures. Growth of the parasites was assessed after further periods of 42 hours (during second cycle), 65 hours (during third cycle) and 84 hours (during fourth cycle). Each pulse of compound 1 was duplicated in separate flasks. Morphologically, synchrony of the cultures was clearly lost during the third parasite cycle.
Furthermore, no morphological differences were detected between parasites that were sampled from these cultures and untreated parasites. On the other hand, incubation with compound 1 during the schizont stage (24-30 hours) of parasite development did produce an inhibitory effect on the growth of P. falciparum resulting in 38% and 30% growth inhibition during the second and third cycles. Morphologically these cultures contained a mixed population of degenerate forms and young ring parasites with evidence of red cell reinvasion. Thus it will be seen that the effect of compound 1 is maximised during the early schizont stage of the development of the parasite. However, the employment of 6 hour pulses in order to compare the effects of the compound at different stages, as opposed to the continuous treatment employed in (A), did lead to a lower level of anti-malarial effect.

P. falciparum [2] = assay: Inhibition of growth of P. falciparum in red cell culture (tritiated hypoxanthine uptake, continuous exposure to chelator); conditions: for growth inhibition of P. falciparum: 50 µmol/l iron binding concentration, after 30 hours, Figure 2; for minimal effective concentration: Plasmodium falciparum, further study, method not detailed, read-out: dosage level at which marked growth inhibition was observed; for level of activity against red blood cells parasitized by P. falciparum (relative ranking): comparison between compounds, no figures; for percentage inhibition of growth after 30 hours as compared with the controls: iron binding concentration of 100 µmol of iron per litre, Figure 1
Procedure: (A) An uncloned strain of P. falciparum, ITO4, was grown on blood group O red cells using a modification of the method described by Trager et al in Science, 1976, […], 673. An atmopshere consisting of 1% oxygen, 3% carbon dioxide and 96% nitrogen was maintained throughout the experiments. Red cells were suspended at a hematocrit of 3% in RPMI 1640 that had been supplemented with 10% v/v human serum, 2 g/l glucose, 4 mM NaOH, 25 µg/ml gentamicin, 1.9 mM glutamine and 25 mM HEPES to form complete medium. For experimental purposes the red cells were then further diluted with the same medium to a final hematocrit of 1.5%. Synchronised parasite cultures were obtained using a combination of sorbitol lysis and gelatin flotation, as described respectively by Jensen et al in Am. J. Trop. Med. Hyg., 1978, 27, 1274 and Lambros et al in J. Parasitol., 1979, 65, 418, thus ensuring that only young ring forms remained. The starting parasitemia in each experiment was between 0.1 and 0.5%.
A red cell suspension containing only recently synchronised ring parasites was treated with 0.2 µCi of tritiated hypoxanthine per 100 µl of red cell suspension and one of ten chelating agents as identified in the Table was added in complete medium to the suspension in an amount such as to produce an iron binding concentration of 100 µmol of iron per litre (all of the chelators combine with iron in a ratio of 3 moles of chelator:1 mole of iron apart from the chelator number 10, desferrioxamine, which combines in a 1:1 molar ratio). The test cultures were immediately dispersed in 200 µl aliquots into 96 well microculture plates. Each chelator was tested in three or more wells and the whole experiment was carried out at least twice for each chelator. Control cultures were used in each experiment which contained no iron chelator.
The growth of the P. falciparum parasites was assessed both by light microscopy examination of thin films that had been stained with Giemsa and through measurement of tritiated hypoxanthine uptake, the cell cultures being harvested onto glass fibre filters and radioactivity, in terms of beta emission from each well, being measured in a flat bed liquid scintillation counter as described by Potter et al in Phys. Med. Biol., 1986, 31(4), 361.
The chelators tested consisted of 1-(2′-carboxyethyl)-3-hydroxy-2-methylpyridin-4-one (R₁ = CH₂CH₂CO₂H, R₂ = CH₃, R₃ = R₄ = H; compound 1) and, for the purposes of comparison with this chelator, nine other chelators not of formula (I) as defined hereinbefore, of which compounds 2 to 9 are 3-hydroxypyridin-4-ones and compound 10 is desferrioxamine. […] These findings were supported by a morphological examination of red cells sampled from the cultures. […] (B) The effect of using different dosage levels than the 100 µmol/l level used in (A) was studied employing the same procedure but using four dosage levels of 10 µmol/l, 25 µmol/l, 50 µmol/l and […]. Only the eight chelators which produced an inhibitory effect at 100 µmol/l were studied and controls containing no iron chelator were again employed.

Compound	growth inhibition of MEL cells (MEL cells, clone 585)	growth inhibition of P. falciparum (P. falciparum [2])	minimal effective concentration (P. falciparum [2]) [µM]	percentage inhibition of growth after 30 hours as compared with the controls (P. falciparum [2])	other results
Cc1c(O)c(=O)ccn1CCC(=O)O [compound 1, 1-(2-carboxyethyl)-3-hydroxy-2-methylpyridin-4-one]	< 10%	> 75%	0.1	more than 65%	inhibition (P. falciparum [1]; 6 hour pulse at 6-12 hours of first cycle, read-out: growth inhibition during the third cycle): 0%; inhibition (P. falciparum [1]; 6 hour pulse at 12-18 hours of first cycle, read-out: growth inhibition during the second cycle): 11.4%; inhibition (P. falciparum [1]; 6 hour pulse at 12-18 hours of first cycle, read-out: growth inhibition during the third cycle): 12%; inhibition (P. falciparum [1]; 6 hour pulse at 18-24 hours of first cycle, read-out: growth inhibition during the second cycle): 0%; inhibition (P. falciparum [1]; 6 hour pulse at 18-24 hours of first cycle, read-out: growth inhibition during the third cycle): 0%; inhibition (P. falciparum [1]; 6 hour pulse during the schizont stage (24-30 hours), read-out: growth inhibition during the second cycle): 38%; inhibition (P. falciparum [1]; 6 hour pulse during the schizont stage (24-30 hours), read-out: growth inhibition during the third cycle): 30%; level of activity against red blood cells parasitized by P. falciparum (relative ranking) (P. falciparum [2]): higher level of activity against red blood cells parasitized by P. falciparum than compounds (12) and (16)
Cc1c(O)c(=O)ccn1CCN.Cl [compound 5, 1-(2-aminoethyl)-3-hydroxy-2-methylpyridin-4-one hydrochloride]	≥ 80%	≥ 70%		more than 65%	
Cc1c(O)c(=O)ccn1C [compound 2, 3-hydroxy-1,2-dimethylpyridin-4-one]	≥ 80%	≥ 70%		more than 65%	
Cc1c(O)c(=O)ccn1CC(=O)O [compound (9), 1-carboxymethyl-3-hydroxy-2-methylpyridin-4-one]					level of activity against red blood cells parasitized by P. falciparum (relative ranking) (P. falciparum [2]): somewhat greater than that of the compound 3-hydroxy-2-methyl-1-(2-sulphoethyl)pyridin-4-one
Cc1c(O)c(=O)ccn1CCCCCC(=O)O [compound 7, 1-(5-carboxypentyl)-3-hydroxy-2-methylpyridin-4-one]	little inhibitory effect	little inhibitory effect		less than 12%	
Cn1ccc(=O)c(O)c1CC(=O)O [(5), 2-carboxymethyl-3-hydroxy-1-methylpyridin-4-one]			0.5		
CC1=NC=CC(=O)C1O (stereo not shown) [compound 3, 3-hydroxy-2-methylpyridin-4-one]	≥ 80%	≥ 70%		more than 65%	
CCc1c(O)c(=O)ccn1CCC(=O)O [(12), 1-(2-carboxyethyl)-2-ethyl-3-hydroxypyridin-4-one]			0.5		level of activity against red blood cells parasitized by P. falciparum (relative ranking) (P. falciparum [2]): higher level of activity than compound (9)
COCCn1ccc(=O)c(O)c1C [compound 6, 3-hydroxy-1-(2-methoxyethyl)-2-methylpyridin-4-one]	≥ 80%	≥ 70%		more than 65%	
Cc1c(O)c(=O)ccn1CCO [compound 4, 3-hydroxy-1-(2-hydroxyethyl)-2-methylpyridin-4-one]	≥ 80%	≥ 70%		more than 65%	
Cc1c(O)c(=O)ccn1CCS(=O)(=O)O [3-hydroxy-2-methyl-1-(2-sulphoethyl)-pyridin-4-one]			1		
Cc1c(O)c(=O)ccn1CCCCCC(=O)NCCC(=O)O [compound 8, 1-(5-(N-(2-carboxyethyl)-carbamoyl)pentyl)-3-hydroxy-2-methylpyridin-4-one]	little inhibitory effect	little inhibitory effect		less than 12%	
CCc1c(O)c(=O)ccn1C [compound 9, 2-ethyl-3-hydroxy-1-methyl-pyridin-4-one]	≥ 80%	≥ 70%		more than 65%	
Cc1c(O)c(=O)ccn1CCCC(=O)O [(16), 1-(3-carboxypropyl)-2-methyl-3-hydroxypyridin-4-one]			0.5		level of activity against red blood cells parasitized by P. falciparum (relative ranking) (P. falciparum [2]): higher level of activity than compound (9)
